Assay [1] addresses BRD2 (Homo sapiens, UniProt P25440). Briefly: AlphaScreen binding inhibition assay with recombinant human BRD2.
The target of assay [2] is T1, BRD4 (Homo sapiens, UniProt O60885).
T1 construct: residues 42–168, BRD4-BD1 (N-terminal bromodomain)
Briefly: X-ray crystal structure at […] Å (soaked crystals); IC50 from AlphaScreen. The assay is classed as binding.

Sequence of BRD2 (P25440 whole entry): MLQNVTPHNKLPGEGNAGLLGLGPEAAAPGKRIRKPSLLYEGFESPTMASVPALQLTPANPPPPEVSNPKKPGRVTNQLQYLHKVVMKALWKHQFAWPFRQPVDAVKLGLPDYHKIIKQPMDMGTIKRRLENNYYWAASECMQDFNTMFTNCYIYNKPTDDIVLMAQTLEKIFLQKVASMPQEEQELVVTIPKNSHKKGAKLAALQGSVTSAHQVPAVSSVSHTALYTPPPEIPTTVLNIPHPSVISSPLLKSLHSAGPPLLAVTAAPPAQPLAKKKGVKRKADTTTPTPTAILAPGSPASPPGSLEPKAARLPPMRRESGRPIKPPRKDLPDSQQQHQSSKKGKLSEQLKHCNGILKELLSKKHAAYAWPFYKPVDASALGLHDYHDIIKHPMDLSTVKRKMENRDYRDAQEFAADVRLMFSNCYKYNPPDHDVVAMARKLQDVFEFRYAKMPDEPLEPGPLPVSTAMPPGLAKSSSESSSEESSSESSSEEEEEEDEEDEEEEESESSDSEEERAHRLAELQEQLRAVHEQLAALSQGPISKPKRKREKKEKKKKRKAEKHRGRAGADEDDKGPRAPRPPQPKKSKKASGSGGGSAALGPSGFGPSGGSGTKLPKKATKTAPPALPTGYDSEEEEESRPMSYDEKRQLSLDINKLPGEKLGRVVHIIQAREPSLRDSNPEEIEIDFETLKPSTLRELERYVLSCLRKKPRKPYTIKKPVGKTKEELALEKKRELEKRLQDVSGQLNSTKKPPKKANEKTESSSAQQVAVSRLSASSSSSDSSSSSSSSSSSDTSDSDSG

For the molecule `CC(=O)N(C)C` [DMA, N,N-Dimethylacetamide], the IC50 in assay [1] was 11 mM; in assay [2], 6 mM.

For the origin of these results see article PMC5296751, “N,N Dimethylacetamide a drug excipient that acts as bromodomain ligand for osteoporosis treatment” (Scientific Reports, 2017).
